Laboratory results as given in US4368267A, “Epoxidation of lower α-olefins” (priority 1980, dated 1983).

What was measured:
[1] = system: Methylobacter capsulatus Y (NRRL B-11,201); test: Methane hydroxylation and propylene epoxidation by washed cell suspensions; format: cell-based
Protocol: (§1) The pH of the nutrient medium was adjusted to 7.0 by the addition of acid or base and 50 ml aliquots of the nutrient medium was charged into a plurality of 300 ml shake flasks. The shake flasks were inoculated with an inoculating loop of cells from an agar plate containing homogeneous colonies of the microorganisms on the plate (the purity of the isolates were confirmed by microscopic examination). The isolates had been maintained on agar plates under an atmosphere of methane and air having a 1:1 v/v gas ratio which had been transferred every two weeks. The gaseous phase of the inoculated flasks was then replaced with a gas mixture comprised of methane and air having a ratio of 1:1 on a v/v basis. The inoculated flasks were sealed air tight and were incubated on a rotary shaker of orbital radius 2.5 cm at 250 rpm and at 30° C. for two days until the turbidity in the medium had developed.
(§2) The cells were harvested by centrifugation at 10,000 ×g at 4° C. for 30 minutes. The cell pellet was washed twice with a 0.15 M phosphate buffer at a pH of 7.0 (containing 0.002 M MgCl2). The washed cells were then suspended in a 0.15 M phosphate buffer at pH 7.0.
A 0.5 ml aliquot of each washed cell suspension (2 mg cells) was put into 10 ml vials at 4° C. which were sealed with a rubber cap. […] It was then incubated at 30° C. on a rotary shaker at 300 rpm. Samples of product (3 μl) were withdrawn periodically with a microsyringe and the products were analyzed by gas chromatography (ionization flame detector column).
Several experiments were carried out using a plurality of compounds capable of generating the necessary reducing power (NADH2 or NADPH2) required for the epoxidation of alkenes or dienes. […]

[2] = system: Methylomonas methanica S1 (NRRL B-11,199); test: Methane hydroxylation and alkene epoxidation by washed cell suspensions; format: cell-based; conditions: for Ability to hydroxylate methane or epoxidize C2 -C4 alkenes: methanol-grown washed cells
Protocol: The pH of the nutrient medium was adjusted to 7.0 by the addition of acid or base and 50 ml aliquots of the nutrient medium was charged into a plurality of 300 ml shake flasks. […] The isolates had been maintained on agar plates under an atmosphere of methane and air having a 1:1 v/v gas ratio which had been transferred every two weeks. […] The inoculated flasks were sealed air tight and were incubated on a rotary shaker of orbital radius 2.5 cm at 250 rpm and at 30° C. for two days until the turbidity in the medium had developed.
as §2
(§3) A 0.5 ml aliquot of each washed cell suspension (2 mg cells) was put into 10 ml vials at 4° C. which were sealed with a rubber cap. The gaseous phase of the vials was removed with vacuum and then was replaced with a gas mixture of alkene and oxygen at a 1:1 v/v ratio. It was then incubated at 30° C. on a rotary shaker at 300 rpm. Samples of product (3 μl) were withdrawn periodically with a microsyringe and the products were analyzed by gas chromatography (ionization flame detector column).

[3] = system: Methylobacterium organophilum (CRL 26, NRRL B-11,222); test: Epoxidation/hydroxylation by washed cell suspensions; format: cell-based; conditions: propylene alone
Protocol: as §1, §2, §3
(§4) Several experiments were carried out using a plurality of compounds capable of generating the necessary reducing power (NADH2 or NADPH2) required for the epoxidation of alkenes or dienes. These experiments were carried out using cell suspensions of methane grown methylotrophs using the procedure as described in Example 1 except that a stimulator compound was added to the reaction medium.

[4] = system: Methylococcus capsulatus (CRL M1, NRRL B-11,219); test: Oxidation/epoxidation by washed cell suspensions; format: cell-based; conditions: propylene alone (control); 3 Hr
Protocol: The pH of the nutrient medium was adjusted to 7.0 by the addition of acid or base and 50 ml aliquots of the nutrient medium was charged into a plurality of 300 ml shake flasks. […] The isolates had been maintained on agar plates under an atmosphere of methane and air having a 1:1 v/v gas ratio which had been transferred every two weeks. The gaseous phase of the inoculated flasks was then replaced with a gas mixture comprised of methane and air having a ratio of 1:1 on a v/v basis. The inoculated flasks were sealed air tight and were incubated on a rotary shaker of orbital radius 2.5 cm at 250 rpm and at 30° C. for two days until the turbidity in the medium had developed.
as §2, §3
The experimental procedure described in Example 1 was used to prepare washed cell suspensions of methane-grown microorganisms and the use of the same to oxidize or epoxidize the branched chain alkanes, alkenes and dienes.

[5] = system: Methylococcus capsulatus strain MC; test: Stimulation of propylene epoxidation in cell suspensions; format: cell-based; conditions: propylene alone
Protocol: as §1, §2, §3, §4

[6] = system: P(40), P(80), S(80) cell fractions of Methylosinus sp. (CRL-15, NRRL B-11,202); test: Oxidation of n-alkanes and n-alkenes by cell fractions; format: biochemical; conditions: for Uninhibited rate of oxidation: no inhibitor; for NADH Oxidized / O2 Consumed / Product Formed: substrate 5.0 μmoles; for Rate of Product Formation (substrate to 1,2-epoxide or alcohol) / 100% activity, product formed (storage study) / 100% activity, product formed (pH study) / 100% activity, product formed (temperature study): P(40) particulate fraction; for 100% activity, product formed (storage study): before storage at 0°-4° C.; for 100% activity, product formed (pH study): optimum pH 7.0; for 100% activity, product formed (temperature study): optimum temperature 35° C.
Protocol: Cells were washed twice with 25 mM potassium phosphate buffer, pH 7.0 containing 5 mM MgCl2. Cells were suspended in the same buffer. The cell suspensions at 4° C. were disintegrated by a single passage through a French Pressure cell (15,000 lb./in.^2) and centrifuged at 5000×g. for 15 min. to remove unbroken bacteria. The supernatant solution (crude extract) was then centrifuged at 40,000×g. for 30 min., yielding particulate P(40) and soluble S(40) fractions. The S(40) fraction was subsequently centrifuged at 80,000×g. for 60 min., yielding particulate P(80) and soluble S(80) fractions. The particulate fractions [P(40) and P(80)] were suspended in 25 mM potassium phosphate buffer, pH 7.0, containing 5 mM MgCl2 and homogenized at 4° C.
[…] The reaction mixtures contained in 1.0 ml: 150 mM potassium phosphate buffer, pH 7.0 containing 5 mM MgCl2, 0.6 ml; […] NADH, and cellular fraction.
Reaction mixtures were contained in 10 ml vials at 4° C. Vials were sealed with rubber caps. The gaseous phase in the vials was removed using vacuum and then was replaced with a gas mixture of methane or propylene and oxygen at a 1:1, v/v ratio. Oxidation of other gaseous n-alkanes and n-alkenes was examined as described above. For liquid substrates, 10 μl of substrate was used directly.
The products of epoxidation of n-alkenes and hydroxylation of n-alkanes were assayed by flame ionization gas chromatography using a stainless steel column (12'×1/8") packed with 10% Carbowax 20 M on 80/100 Chromosorb W and Porapak Q column. The column temperature was maintained isothermally at 120° C. The carrier gas flow rate was 30 ml/min. of helium. The various products were identified by retention time comparisons and co-chromatography with authentic standards.
Specific activities were expressed as μ moles of products formed per hour per mg. protein. Concentrations of protein in various fractions were determined by the method of Lowry et al., J. Biol. Chem. 193: 265-275 (1951).

[7] = methane-grown washed cells, 30° C.

Row | SMILES | Ability to hydroxylate methane or epoxidize C2 -C4 alkenes [2] | Uninhibited rate of oxidation ([6]; P(40) fraction) | NADH Oxidized ([6]; P(40) fraction) | O2 Consumed ([6]; P(40) fraction) | Product Formed ([6]; P(40) fraction) | Rate of Product Formation (substrate to 1,2-epoxide or alcohol) ([6]; 30° C.) | 100% activity, product formed (storage study) [6] | 100% activity, product formed (pH study) [6] | 100% activity, product formed (temperature study) [6] | also measured
1 | C=CC [Propylene] | did not possess the ability | 4.1 μmoles per hr. per mg. of prot | 5.0 µmol | 4.8 µmol | 4.5 µmol | 4.1 μmoles/hr/mg of protein | 4.1 μmoles per hr. per mg. of prot | 4.1 μmoles per hour, per mg protei | 4.2 μmoles per hour per mg of prot | Conversion rate, propylene to propylene oxide [1, 7]: 1.5 μmole/hr/mg protein; Rate of Product Formation (Propylene Oxide) ([1]; propylene alone): 2 nmoles/hr/mg protein; Conversion rate, propylene to propylene oxide [2, 7]: 2.7 μmole/hr/mg protein; Rate of Product Formation (Propylene Oxide) [3]: 10 nmoles/hr/mg protein; Epoxidation Rate, Propylene oxide [4]: 3.9 μmoles/0.5 ml; Rate of Product Formation (Propylene Oxide) [5]: 3.5 nmoles/hr/mg protein; Propylene-Oxidizing Activity, P(40) ([6]; P(40) fraction, 30° C.): 3.8 μmoles of product formed per h; Propylene Oxide Produced ([6]; P(40) fraction, substrate propylene alone): 4.3 μmoles/hr/mg. protein; Propylene-Oxidizing Activity, P(80) ([6]; P(80) fraction, 30° C.): 3.7 μmoles of product formed per h; Propylene-Oxidizing Activity, S(80) ([6]; S(80) fraction, 30° C.): 0 μmoles of product formed per h
2 | C [Methane] | did not possess the ability | 4.5 μmoles per hr. per mg. of prot | 4.8 µmol | 4.6 µmol | 4.2 µmol | 4.8 μmoles/hr/mg of protein | 4.8 μmoles per hr. per mg. of prot | 4.8 μmoles per hour, per mg protei | 5.0 μmoles per hour per mg of prot | Conversion rate, methane hydroxylation [2, 7]: 1.3 μmole/hr/mg protein; Methane-Oxidizing Activity, P(40) ([6]; P(40) fraction, 30° C.): 4.8 μmoles of product formed per h; Propylene Oxide Produced ([6]; P(40) fraction, substrate Propylene + Methane (1:1, v/v)): 1.8 μmoles/hr/mg. protein; Propylene Oxide Produced ([6]; P(40) fraction, substrate methane alone): 0 μmoles/hr/mg. protein; Methane-Oxidizing Activity, P(80) ([6]; P(80) fraction, 30° C.): 4.2 μmoles of product formed per h; Methane-Oxidizing Activity, S(80) ([6]; S(80) fraction, 30° C.): 0 μmoles of product formed per h
